Data from US20030180294A1, “Methods of extending corneal graft survival” (priority 2002, published 2003).

What was measured:
VEGFR-3 = VEGFR-3 (Homo sapiens, UniProt P35916); conditions: VEGF-C and VEGF-D induced; cited from earlier work
[1] = tested on: corneal transplants in the Lewis/Wistar-Furth combination; test: rat model of keratoplasty, corneal graft survival; assay type: in vivo; conditions: Lewis cornea to Wistar-Furth recipient, systemic 0.5 to 200 mg/kg/day or eye drop 0.05% to 5.0%, versus vehicle (rejection on average at day 30)
Method: Grafts are prepared and transferred according to the well-characterized rat model of keratoplasty with transplantation of corneas from Lewis strain rats to Wistar-Furth recipients (Callanan et al., Transplantation 45:437-443 (1988)). Each treatment group administered vehicle or test agent includes nine to fourteen rats. Grafts are observed clinically and scored three times per week for signs of rejection according to the criteria in Callanan et al., supra, 1988. Day 60 following surgery represents a two-fold prolongation in the expected mean survival time for corneal transplants in the Lewis/Wistar-Furth combination and therefore is selected as an advantageous time for terminating treatment. Rats bearing grafts not rejected by day 60 are observed for an additional 14 days to determine if the host's immune system has been tolerized. At this time, 80% of the grafted eyes are snap frozen for cryostat sectioning, and the remaining 20% of the eyes are fixed in formalin for H & E staining.
The VEGFR-3 tyrosine kinase inhibitor MAE87, MAE106 or MAZ51 is administered systemically at various concentrations, ranging from 0.5 to 200 mg/kg/day. In other animals, the compound is administered as an eye drop solution in various concentrations ranging from 0.05% to 5.0% and administered as various frequencies (once per day, two times per day and three times per day).

Chain of VEGFR-3 (P35916 25-1363, species assumed): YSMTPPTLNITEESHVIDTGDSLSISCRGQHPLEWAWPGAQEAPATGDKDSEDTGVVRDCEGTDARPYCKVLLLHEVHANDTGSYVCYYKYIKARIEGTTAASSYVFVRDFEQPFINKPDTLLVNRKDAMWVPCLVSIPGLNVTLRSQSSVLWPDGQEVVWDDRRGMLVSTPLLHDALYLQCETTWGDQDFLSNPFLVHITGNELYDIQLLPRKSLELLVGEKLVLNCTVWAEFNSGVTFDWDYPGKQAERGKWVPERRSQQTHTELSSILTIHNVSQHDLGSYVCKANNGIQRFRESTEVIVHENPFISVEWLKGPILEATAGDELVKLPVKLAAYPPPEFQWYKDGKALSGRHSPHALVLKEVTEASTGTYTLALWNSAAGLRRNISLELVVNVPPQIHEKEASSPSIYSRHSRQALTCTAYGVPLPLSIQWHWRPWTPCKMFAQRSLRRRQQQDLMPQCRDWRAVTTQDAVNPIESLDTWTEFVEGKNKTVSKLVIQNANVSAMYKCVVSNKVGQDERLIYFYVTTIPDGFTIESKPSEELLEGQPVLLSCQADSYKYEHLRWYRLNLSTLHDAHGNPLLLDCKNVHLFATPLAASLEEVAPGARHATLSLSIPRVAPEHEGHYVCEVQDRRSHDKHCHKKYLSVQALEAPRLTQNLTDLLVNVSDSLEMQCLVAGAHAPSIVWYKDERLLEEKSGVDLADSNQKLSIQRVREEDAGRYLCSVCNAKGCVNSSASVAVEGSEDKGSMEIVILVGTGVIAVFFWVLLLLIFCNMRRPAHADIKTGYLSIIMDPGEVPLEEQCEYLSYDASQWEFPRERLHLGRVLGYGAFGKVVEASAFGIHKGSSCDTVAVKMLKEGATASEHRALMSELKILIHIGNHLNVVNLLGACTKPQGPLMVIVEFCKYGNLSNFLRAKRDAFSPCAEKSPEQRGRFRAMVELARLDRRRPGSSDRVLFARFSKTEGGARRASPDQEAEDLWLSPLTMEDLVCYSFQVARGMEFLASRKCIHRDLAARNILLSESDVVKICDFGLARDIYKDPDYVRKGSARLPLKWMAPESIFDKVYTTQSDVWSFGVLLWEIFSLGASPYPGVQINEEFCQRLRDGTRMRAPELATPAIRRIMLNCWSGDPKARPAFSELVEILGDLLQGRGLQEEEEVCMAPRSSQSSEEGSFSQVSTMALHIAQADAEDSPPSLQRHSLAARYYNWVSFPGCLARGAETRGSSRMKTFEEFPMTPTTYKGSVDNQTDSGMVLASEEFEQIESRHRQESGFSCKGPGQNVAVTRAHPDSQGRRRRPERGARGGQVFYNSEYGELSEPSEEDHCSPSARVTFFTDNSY

SMILES	VEGFR-3 kinase activity versus VEGFR-2 (specificity) (VEGFR-3)	mean graft survival (delay in evidence of graft rejection) [1]
COc1ccc(C=C2C(=O)Nc3ccccc32)cc1F [MAE106, 3-(3-fluoro-4-methoxy-benzylidene)-1,3-dihydro-indol-2-one]	differentially block VEGF-C and VEGF-D induced VEGFR-3 kinase activity compared to that of VEGFR-2	increased mean graft survival
O=C1Nc2ccccc2C1=Cc1ccc(O)cc1O [MAE87, 3(2,4-dihydroxy-benzylidene)-1,3-dihydro-indol-2-one]		increased mean graft survival
CN(C)c1ccc(C=C2C(=O)Nc3ccccc32)c2ccccc12 [MAZ51, 3-(4-dimethylamino-naphthalen-1-ylmethylene)-1,3-dihydro-indol-2-one]	differentially block VEGF-C and VEGF-D induced VEGFR-3 kinase activity compared to that of VEGFR-2	increased mean graft survival
